One may read the EC50 as the midpoint of the concentration-response curve. Read a low EC50 as higher potency in that assay.

GPR40, sequence (O14842 whole entry): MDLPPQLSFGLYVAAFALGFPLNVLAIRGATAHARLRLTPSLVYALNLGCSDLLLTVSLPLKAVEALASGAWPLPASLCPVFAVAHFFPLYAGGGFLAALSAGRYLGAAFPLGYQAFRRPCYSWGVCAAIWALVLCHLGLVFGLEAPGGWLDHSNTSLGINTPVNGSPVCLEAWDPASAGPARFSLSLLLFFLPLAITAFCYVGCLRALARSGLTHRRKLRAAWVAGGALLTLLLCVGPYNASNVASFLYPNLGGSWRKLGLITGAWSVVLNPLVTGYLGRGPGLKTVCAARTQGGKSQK

The target in this experiment is GPR40 (Homo sapiens, UniProt O14842). Nature of the experiment: Cell-based aequorin assay (CHO cells stably expressing GPR40 and aequorin). Also noted: expressed in transfected cells; host or cells: CHO cells stably transfected with GPR40 and aequorin. As to conditions: activation of human GPR40, CHO cells, 0.01% HSA. Summed up:
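CHO cells stably co-expressing GPR40 and aequorin, loaded with coelenterazine (1 ug/mL, 2 h, room temperature) in H/HBSS with 20 mM Hepes and 0.01% fatty acid-free HSA. Serially diluted compounds added; luminescence recorded over 20 s. EC50 from dose-response of maximum relative light units.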
For `CCC=C[C@H](CC(=O)O)c1cccc(OCc2ccc(-c3cc(OC)ccc3F)c(C(C)(C)C)c2)c1` (single isomer, unassigned) [Example 75, (3S)-3-(3-(((2-(1,1-Dimethylethyl)-2′-fluoro-5′-(methyloxy)-1,1′-biphenyl-4-yl)methyl)oxy)phenyl)-4-heptenoic acid or (3R)-3-(3-(((2-(1,1-dimethylethyl)-2′-fluoro-5′-(methyloxy)-1,1′-biphenyl-4-yl)methyl)oxy)phenyl)-4-heptenoic acid], the half-maximal effective concentration (EC50) lay in the range of 0.1 to 1 µM.

As for `CCC(CC(=O)O)c1cc(OCc2ccc(-c3cc(OC)ccc3F)c(C(C)(C)C)c2)ccc1F` (single isomer, unassigned) [Example 76.2, (3R)-3-(5-(((2-(1,1-Dimethylethyl)-2′-fluoro-5′-(methyloxy)-1,1′-biphenyl-4-yl)methyl)oxy)-2-fluorophenyl)pentanoic acid or (3S)-3-(5-(((2-(1,1-dimethylethyl)-2′-fluoro-5′-(methyloxy)-1,1′-biphenyl-4-yl)methyl)oxy)-2-fluorophenyl)pentanoic acid], the concentration giving a half-maximal response (EC50) lay within 1 to 10 µM.

The molecule `CC[C@H](CC(=O)O)c1cccc(OCc2ccc(-c3cc(OC)ncc3F)c(C3(COC)CCCC3)c2)c1F` (single isomer, unassigned) [Example 77.12, (3R)-3-(3-(4-(5-Fluoro-2-methoxypyridin-4-yl)-3-(1-(methoxymethyl)cyclopentyl)benzyloxy)-2-fluorophenyl)pentanoic acid or (3S)-3-(3-(4-(5-fluoro-2-methoxypyridin-4-yl)-3-(1-(methoxymethyl)cyclopentyl)benzyloxy)-2-fluorophenyl)pentanoic acid] came in with an EC50 of 1 to 10 µM.

`CCC(CC(=O)O)c1cccc(OCc2ccc(-c3cc(OC)ccc3F)c(C3CCCC3(C)C)c2)c1` (single isomer, unassigned) [Example 78.3] gave an EC50 of 0.1 to 1 µM.

Consider `CC[C@H](CC(=O)O)c1cccc(OCc2ccc(-c3cccc(OC)c3)c([C@@H]3CCCC3(C)C)c2)c1` (single isomer, unassigned) [Example 78.5], for which the concentration giving a half-maximal response (EC50) is 0.1 to 1 µM.

As for `CCOCc1cc(COc2cccc(C(CC)CC(=O)O)c2)ccc1-c1cc(OC)ccc1F` (single isomer, unassigned) [Example 78.12, (3R)-3-(3-(((2-((Ethyloxy)methyl)-2′-fluoro-5′-(methyloxy)-1,1′-biphenyl-4-yl)methyl)oxy)phenyl)pentanoic acid or (3S)-3-(3-(((2-((ethyloxy)methyl)-2′-fluoro-5′-(methyloxy)-1,1′-biphenyl-4-yl)methyl)oxy)phenyl)pentanoic acid], the concentration for a half-maximal effect (EC50) lay within 1 to 10 µM.

In the case of `C=CC(C)(C)C(OC)c1cc(COc2cccc(C(CC)CC(=O)O)c2)ccc1-c1cc(OC)ccc1F` (single isomer, unassigned) [Example 78.13], the EC50 was in the range of 1 to 10 µM.

Take `COc1cccc(-c2ccc(COc3cccc(C(CC(=O)O)C4CCC4)c3)cc2C2CCCC2(C)C)c1` (single isomer, unassigned) [Example 79.5]: the half-maximal effective concentration (EC50) was in the range of 0.1 to 1 µM.

`CCCC(CC(=O)O)c1cccc(OCc2ccc(-c3cccc(OC)c3)c(C3CCCCCC3)c2)c1` (single isomer, unassigned) [Example 80.1, (3R)-3-(3-(((2-Cycloheptyl-3′-(methyloxy)-1,1′-biphenyl-4-yl)methyl)oxy)phenyl)hexanoic acid or (3S)-3-(3-(((2-cycloheptyl-3′-(methyloxy)-1,1′-biphenyl-4-yl)methyl)oxy)phenyl)hexanoic acid] displayed a concentration giving a half-maximal response (EC50) of 0.1 to 1 µM.

In turn, `CCCC(CC(=O)O)c1cccc(OCc2ccc(-c3cc(OC)ccc3F)c(C3CCCC3(C)C)c2)c1` (single isomer, unassigned) [Example 80.3] gave an EC50 of 0.1 to 1 µM.

For `CCCC(CC(=O)O)c1cccc(OCc2ccc(-c3cccc(OC)c3)c(C3CCCC3(C)C)c2)c1` (single isomer, unassigned) [Example 80.5], the EC50 is 0.1 to 1 µM.

Take `CC1(C)CCC[C@H]1c1cc(COc2cccc([C@H](CC(=O)O)C3CC3)c2F)ccc1-c1cc(C(F)F)ccc1F` (single isomer, unassigned) [Example 83.13]: the EC50 was 1 to 10 µM.

As to `COc1ccc(F)c(-c2ccc(COc3cccc(C(CC(=O)O)C4CC4)c3F)cc2C2CCCC2(C)C)c1` (single isomer, unassigned) [Example 83.17], the half-maximal effective concentration (EC50) is 0.1 to 1 µM.

The molecule `COc1ccc(F)c(-c2ccc(COc3cccc([C@@H](CC(=O)O)C4CC4)c3F)cc2[C@H](O)C2(C)CC2)c1` (single isomer, unassigned) [Example 83.18] came in with an EC50 of 1 to 10 µM.

For `COc1ccc(F)c(-c2ccc(COc3cccc([C@H](CC(=O)O)C4CC4)c3F)cc2[C@H](O)C2(C)CC2)c1` (single isomer, unassigned) [Example 83.19], the half-maximal effective concentration (EC50) fell in the range of 1 to 10 µM.

As to `CC1(C)CCC[C@@H]1c1cc(COc2cccc([C@@H](CC(=O)O)C3CC3)c2F)ccc1-c1ccccc1F` (single isomer, unassigned) [Example 83.23], the concentration for a half-maximal effect (EC50) fell in the range of 0.1 to 1 µM.

In the case of `COCC1(c2cc(COc3cccc(C(CC(=O)O)C4CC4)c3F)ccc2-c2cc(OC)ncc2F)CCCC1` (single isomer, unassigned) [Example 83.30, (3S)-3-(3-(4-(5-Fluoro-2-methoxypyridin-4-yl)-3-(1-(methoxymethyl)cyclopentyl)benzyloxy)-2-fluorophenyl)-3-cyclopropylpropanoic acid or (3R)-3-(3-(4-(5-fluoro-2-methoxypyridin-4-yl)-3-(1-(methoxymethyl)cyclopentyl)benzyloxy)-2-fluorophenyl)-3-cyclopropylpropanoic acid], the EC50 is 1 to 10 µM.

With `COc1ccc(F)c(-c2ccc(COc3cccc([C@@H](CC(=O)O)C4CC4)c3F)cc2[C@H](OC)C2(C)CC2)c1` (single isomer, unassigned) [Example 83.31], the half-maximal effective concentration (EC50) is 1 to 10 µM.

On to `COc1cc(-c2ccc(COc3cccc([C@@H](CC(=O)O)C4CC4)c3F)cc2[C@H](OC)C(C)(C)C)c(F)cn1` (single isomer, unassigned) [Example 83.32], for which the EC50 lay within 1 to 10 µM.

For the molecule `COc1ccc(F)c(-c2ccc(COc3cccc(C(CC(=O)O)C4CC4)c3F)cc2C(OC)C(C)(C)OC)c1` (single isomer, unassigned) [Example 83.33], the EC50 lay in the range of 1 to 10 µM.

As for `CCC(CC(=O)O)c1ccc(F)c(OCc2ccc(-c3cc(OC)ccc3F)c(C(C)(C)C)c2)c1` (single isomer, unassigned) [Example 86.2, (3R)-3-(3-(((2-(1,1-Dimethylethyl)-2′-fluoro-5′-(methyloxy)-1,1′-biphenyl-4-yl)methyl)oxy)-4-fluorophenyl)pentanoic acid or (3S)-3-(3-(((2-(1,1-dimethylethyl)-2′-fluoro-5′-(methyloxy)-1,1′-biphenyl-4-yl)methyl)oxy)-4-fluorophenyl)pentanoic acid], the EC50 was in the range of 1 to 10 µM.

The molecule `COc1ccc(F)c(-c2ccc(COc3cccc(C(CC(=O)O)CC(C)C)c3)cc2C(C)(C)C)c1` (single isomer, unassigned) [Example 92, (3R)-3-(3-(((2-(1,1-Dimethylethyl)-2′-fluoro-5′-(methyloxy)-1,1′-biphenyl-4-yl)methyl)oxy)phenyl)-5-methylhexanoic acid or (3S)-3-(3-(((2-(1,1-dimethylethyl)-2′-fluoro-5′-(methyloxy)-1,1′-biphenyl-4-yl)methyl)oxy)phenyl)-5-methylhexanoic acid] gave an EC50 of 1 to 10 µM.

In turn, `COc1ccc(F)c(-c2ccc(COc3cccc([C@H](CC(=O)O)C4CC4)c3)cc2C2=CCCC2(C)C)c1` (single isomer, unassigned) [Example 97.1, (3R)-3-Cyclopropyl-3-(3-(((2-(5,5-dimethyl-1-cyclopenten-1-yl)-2′-fluoro-5′-(methyloxy)-1,1′-biphenyl-4-yl)methyl)oxy)phenyl)propanoic acid or (3S)-3-cyclopropyl-3-(3-(((2-(5,5-dimethyl-1-cyclopenten-1-yl)-2′-fluoro-5′-(methyloxy)-1,1′-biphenyl-4-yl)methyl)oxy)phenyl)propanoic acid] yielded an EC50 of 1 to 10 µM.

On to `COc1ccc(F)c(-c2ccc(COc3cccc(C(CC(=O)O)C4CC4)c3)cc2C2CCCC2(C)C)c1` (single isomer, unassigned) [Example 97.2], for which the concentration for a half-maximal effect (EC50) was 1 to 10 µM.

`CCC(CC(=O)O)c1cccc(OCc2ccc(-c3cc(OC)ccc3F)c(C3CCCC3(C)C)c2)c1` (single isomer, unassigned) [Example 98.1] returned a half-maximal effective concentration (EC50) of 0.1 to 1 µM.

As to `CCC(CC(=O)O)c1cccc(OCc2ccc(-c3cc(OC)ccc3F)c(C3CCCC3(C)C)c2)c1` (single isomer, unassigned) [Example 98.2], the half-maximal effective concentration (EC50) is 1 to 10 µM.

`COc1ccc(F)c(-c2ccc(COc3cccc(C(CC(=O)O)C4CC4)c3F)cc2C2=CCCC2(C)C)c1` (single isomer, unassigned) [Example 99.1, (3R)-3-Cyclopropyl-3-(3-(((2-(5,5-dimethyl-1-cyclopenten-1-yl)-2′-fluoro-5′-(methyloxy)-1,1′-biphenyl-4-yl)methyl)oxy)-2-fluorophenyl)propanoic acid or (3S)-3-cyclopropyl-3-(3-(((2-(5,5-dimethyl-1-cyclopenten-1-yl)-2′-fluoro-5′-(methyloxy)-1,1′-biphenyl-4-yl)methyl)oxy)-2-fluorophenyl)propanoic acid] showed a half-maximal effective concentration (EC50) of 1 to 10 µM.

Regarding `COc1ccc(F)c(-c2ccc(COc3cccc([C@H](CC(=O)O)C4CC4)c3F)cc2[C@H]2CCCC2(C)C)c1` (single isomer, unassigned) [Example 99.3], the concentration for a half-maximal effect (EC50) was in the range of 1 to 10 µM.

With `CCC(CC(=O)O)c1cccc(OCc2ccc(-c3cc(OC)ccc3F)c(C3CCCC3(C)C)c2)c1F` (single isomer, unassigned) [Example 100.1], the 50% effective concentration (EC50) was 1 to 10 µM.

`CCC(CC(=O)O)c1cccc(OCc2ccc(-c3cc(OC)ccc3F)c(C3CCCC3(C)C)c2)c1F` (single isomer, unassigned) [Example 100.2] had a concentration for a half-maximal effect (EC50) of 0.1 to 1 µM.

Source of the values: patent US8030354B2, “Substituted biphenyl GPR40 modulators” (Amgen Inc., priority 2007, dated 2011).
